Tested on: pigmented reconstructed human epidermis (RHE)
Experiment: Melanin synthesis in ex vivo pigmented reconstructed human epidermis (Fontana-Masson staining)
Assay type: cell-based
Conditions: pigmented RHE phototype IV, topical formulation (2% extract or 1% kojic acid), 3 days, 2 applications per day, vs placebo formula
Method: Non-pigmented reconstructed human epidermis (RHE) and pigmented RHE phototype IV were prepared by seeding human melanocytes and keratinocytes in an incubation chamber placed on the epidermal side of a dead dermis at 4×10^5 cells per cm^2, at a 1:20 melanocyte:keratinocyte ratio. After 24 hours, the incubation chamber was removed and the dead dermis was submerged for 3 days. The dead dermis was moved to the air-liquid interface for 8 days prior to treatment. After 8 days of exposure to the air-liquid interface, the pigmented RHE and non-pigmented RHE were contacted with Pinus strobus bark extract, placebo, negative control (no treatment), or positive control (kojic acid). This involved topical application of each formulation for 3 days, 2 applications per day (see FIG. 5). After 3 days, pigmented RHE was incubated for 3 days in the presence of a 1:1 mixture of fresh media and conditioned media from the non-pigmented RHE. The formulations included Heliogel™ (sodium acrylates copolymer, hydrogenated polyisobutene, phospholipids, polyglyceryl-10 stearate, sunflower seed oil; Lucas Meyer Cosmetics), Saboderm TCC (Caprylic/Capric Triglyceride; SABO, S.p.A), and Dekaben C (phenoxyethanol, methylparaben, ethylparaben, butylparaben, isobutylparaben, propylparaben; Jan Dekker BV) in the amounts listed in Table 1. Pigmentation was evaluated by Fontana-Masson staining. […]

**Q.** Which “decrease in melanin synthesis” value does the source give for O=c1cc(CO)occ1O [Kojic acid] here?
**A.** 8.1%
